Results on three compounds are retold here after patent publication US20070203149A1, “CCR5 ANTAGONISTS USEFUL FOR TREATING HIV” (Schering Corporation, priority 2006, published 2007).

The structures appear in SMILES notation.

For data set [1], the system named is primary R5 HIV 1 clinical isolates. As to the kind of experiment: Inhibition of viral replication in human PBMCs infected with primary R5 HIV 1 clinical isolates. Conditions: for IC50: Human immunodeficiency virus 1, PBMC, human PBMCs infected with primary R5 HIV 1 clinical isolates, read-out: median IC50, inhibition of viral replication. The data set is classed as cell-based. As for the experimental part:
This assay uses primary peripheral blood mononuclear cells or the stable U87-CCR5 cell line to determine the effect of anti-CCR5 compounds to block infection of primary HIV-1 strains. The primary lymphocytes are purified from normal healthy donors and stimulated in vitro with PHA and IL-2 three days prior to infection. Using a 96-well plate format, cells are pretreated with drug for 1 hour at 37° C. and subsequently infected with an M-tropic HIV-1 isolates. Following infection, the cells are washed to remove residual inoculum and cultured in the presence of compound for 4 days. Culture supernatants are harvested and viral replication measured by determination of viral p24 antigen concentration.

The nature of data set [2]: Human rising single dose study: metabolite profiling of plasma and urine by LC-MS/MS after oral compound of formula A. The data set is classed as in vivo. As to the method:
(M5a/M5b/M5c/M5d are potential rotamers of the compound of Formula I)
In a human rising single dose study, plasma levels of the compound of formula I relative to the compound of formula A were assessed in blood samples drawn at 2, 8, and 24 hr following oral administration of the compound of formula A. An in-house metabolite profiling method using LC-MS/MS detection was employed for this assessment. Based on this qualitative assessment of the compound of formula I in human plasma, the concentrations of the compound of formula I are projected to be up to 3-fold higher than the compound of formula A in human plasma (see FIG. 5). This is considered to be a surprising and unexpected result.

In general, IC50 refers to the point on the concentration scale where inhibition reaches its midpoint. Turning to `COC[C@@H](c1ccc(C(F)(F)F)cc1)N1CCN(C2(C)CCN(C(=O)c3c(C)ncnc3C)CC2)C[C@@H]1C` [SCH-417690, reference compound], the IC50 in data set [1] was 7.5 nM.
With `Cc1ncnc(C)c1C(=O)N1CCC(C)(N2CCN([C@@H](c3cccc(F)c3)C3CCN(S(=O)(=O)C4CC4)CC3)[C@@H](C)C2)CC1` [compound of formula A, reference compound], in data set [1], the IC50 turned out to be 1 nM.
On to `Cc1nc[n+]([O-])c(C)c1C(=O)N1CCC(C)(N2CCN([C@@H](c3cccc(F)c3)C3CCN(S(=O)(=O)C4CC4)CC3)[C@@H](C)C2)CC1` [compound of formula I], for which the “metabolite status in human urine” value in data set [2] (0-24 hr urine, single oral 50 mg compound of Formula A, healthy male volunteers) is given as “significant metabolite”. The “metabolite status in clinical samples” value in data set [2] (first-in-man studies after administration of compound of formula A) is “major metabolite”. Moreover, the “plasma concentration relative to the compound of formula A” value in data set [2] (human plasma, samples at 2, 8 and 24 hr after oral compound of formula A, projected from qualitative assessment) was “up to 3 fold”. The “metabolite status in human plasma” value in data set [2] (plasma 2 hr, single oral 50 mg compound of Formula A, healthy male volunteers) is listed as “significant metabolite”. The “susceptibility to further metabolism” value in data set [2] (stated as consequence of being a major metabolite) was “less susceptible to further rapid metabolism”. Besides, the IC50 in data set [1] was found to be 8 nM. The “in vitro potency relative to the compound of formula A” value in data set [1] (human PBMCs, primary R5 HIV 1 isolates, ratio of median IC50 values) is listed as “approximately ⅛”.
